Assay [1] concerns L-FABP mRNA in human urinary exfoliated cells (human renal tubular epithelial cells). Description: L-FABP up-regulating activity at mRNA level (RT-PCR) in human urinary exfoliated cells. To be noted: 10 μM (Table 1), listed as THA. The class given is cell-based. The method, then:
Renal tubular epithelial cells exfoliated from kidney tissues into urine (hereafter, referred to as “urinary exfoliated cell”) were isolated from human urine sample and cultured in the following manner. Firstly, urine samples from male infant nephritis patients (0-3 years old) were collected using the clean-catch method. The urine samples were then centrifuged (1000 rpm, 10 minutes) at room temperature and the supernatant was discarded. The pellet was washed with 10% (v/v) fetal calf serum-containing Dulbecco's modified Eagle's medium twice and then with culture medium once. The culture medium used herein was a mixture (1:1) of Dulbecco's modified Eagle's medium and Ham's F-12 medium, to which mixture was added fetal calf serum (10% v/v), insulin (5 μg/ml), transferrin (5 μg/ml), sodium selenite (5 ng/ml), dexamethasone (10^−8 M), nicotinamide (5 mM), penicillin (100 IU/ml) and streptomycin (100 μg/ml). The pellet was suspended into the culture medium, diluted appropriately and then cultured in collagen type 4-coated dish (3.5 cm in diameter, Falcon). The cultivation was performed under the condition of 5% CO2, 37° C. […] Also, in order to normalize the measurement values, rBAT (related to b^0,+ system amino acid transporter; Purroy et. al., Genomics, Vol 37. pp. 249-252, 1996) mRNA was detected as control by RT-PCR.

The subject of assay [2] is human L-FABP gene transcriptional regulatory region (luciferase reporter). Description: L-FABP up-regulating activity by luciferase reporter assay in proximal renal tubular epithelial cell line mProx 37-13. Conditions: mProx 37-13 cells, serum-free medium, luciferase measured after 2 to 10 hours; FIG. 4. It is filed as cell-based. The method, then: A test substance was examined for the L-FABP up-regulating activity by reporter assay method in the following manner using the proximal renal tubular epithelial cell line mProx 37-13 (also referred as “cell line No. 13”) comprising L-FABP reporter DNA construct and was prepared in Example 2 above. Firstly, the cell line mProx 37-13 was added in 96-well flat-bottom plates at 5×10^4 cells/ 100 μl/well and cultured. The cultivation was conducted using plates pre-coated with 0.1% gelatin and, as a medium, a high glucose-containing Dulbecco's MEM medium (Dulbecco's MEM, high glucose; DMEM) (Gibco) supplemented with 10% fetal calf serum, 100 unit/ml of penicillin and 100 μg/ml of streptomycin. […] After additional cultivation, Luciferase activity was detected after 2 to 10 hours. Luciferase activity was measured in the following way. […] After the plate stored at −80° C. was allowed to become room temperature, 100 μl of luminescence substrate solution (PicaGene luminescence kit, TOYO INK) was added to initiate reaction. Amount of luminescence was detected using luminometer (MicroLumat LP98P, BERTHOLD). […] The luciferase induction rate (Luc induction rate) was calculated based on the activity value according to the following equation: Luc induction rate=(test value)/(control value).

The subject of the next assay is human L-FABP. The assay can be described thus: L-FABP up-regulating activity at protein level (Western blotting or ELISA) in LLC-PK1 or mouse immortalized renal tubular epithelial cells carrying the human L-FABP chromosomal gene. The class given is cell-based. To be noted: 1 μM, serum-free DMEM; anti-human L-FABP antibody. The text has this: The plasmid isolated in Example 1, (2) above, which contains human L-FABP chromosomal gene (entire length), was linealized and transfected into the porcine renal tubular cell line LLC-PK1 or mouse immortalized renal tubular epithelial cells prepared in a manner similar to that described in Example 2 (3) above to obtain stable transformed cell lines. The human L-FABP chromosomal gene was integrated into these cells on their chromosome without deletion. Using these cells, L-FABP up-regulating activity of test compounds were examined at RNA level and protein level in the following manner. Cells were cultured to become confluent, when the medium was replaced with serum-free DMEM medium, and test compounds were added to the medium at final concentration of 1 μM. The cultivation was continued at 37° C. Control sample was obtained without adding any test compounds. Measurement at protein level was carried out in the following manner. Cultivated cells were collected and sonicated and then cell extract was prepared. The amount of L-FABP in the extract was detected by Western Blotting method or ELISA method with anti-human L-FABP antibody. […] The up-regulating effect on L-FABP protein expression was also observed when Etomoxir was added.

For assay [3], the system named is adriamycin-induced glomerular sclerosis hFABP-Tg mouse. Description: Adriamycin-induced glomerular sclerosis model in transgenic mouse introduced with human L-FABP gene (hFABP-Tg mouse). To be noted: 10 mg/kg. The class given is in vivo. As to the method:
Transgenic mouse (hFABP-Tg mouse) introduced with human L-FABP gene was prepared. The hFABP-Tg mouse was used to make renal disease model similar to that of Example 8 and the effect of MCC-555 was identified.
In the preparation of hFABP-Tg mouse, male BCF1 mouse (13-week or over) was used for sterile mating and natural mating; female ICR mouse (10-week or over) for embryo transplant and as a foster mother; male BDF1 mouse (13-week or over) for mating; and female BCF1 mouse (8-week or over) for collection of eggs, respectively. The resultant transgenic mouse (B6C3F1 line) was used to backcross with BALB/c mouse.
The resultant female transgenic mouse was used to prepare a renal disease model (adriamycin-induced glomerular sclerosis model) and to confirm effects of drug (MCC-555). The preparation of disease model and confirmation of effect of a drug were conducted in a similar manner to that described in Example 8 above except that the dose of adriamycin on the first experiment day (Day 0) was 15 mg/kg (15 ml/kg, dissolved in saline at concentration of 1 mg/ml).
In drug administration group (n=5), MCC-555 (10 mg/kg) was administered to mice that have received adriamycin, and in control group (at the beginning of experiment, n=5), only carrier was administered to mice that have received adriamycin, In normal group (n=3), mice that were not treated with adriamycin received carrier. Collection of urine was performed 3 times in total, i.e., day 6-7 day (Day 7), day 10-11 (Day 11), and day 13-14 (Day 14) and urinary protein, NAG and creatinine concentrations were determined by Automated clinical analyzer after measurements of urine volume.

Assay [4] deals with adriamycin-induced glomerular sclerosis mouse. The assay can be described thus: Adriamycin-induced glomerular sclerosis model mouse (BALB/c). The class given is in vivo. The text has this:
An adriamycin-induced glomerular sclerosis mouse was used as a renal disease model to confirm effect of PPAR agonist MCC-555 in the following manner. An adriamycin(AD)-induced glomerular sclerosis mouse is a pathological model which develops focal glomerular sclerosis in 3 weeks after the onset of nephrosis symptom while showing the symptom and eventually results in irreversible chronic renal insufficiency (Chen et. al., Nephron, vol. 78, pp.440-452, 1998). As shown in Examples 3, 4 and 5, MCC-555 is a compound confirmed to have L-FABP up-regulating activity. In the experiment, 7-week-age female BALB/c mice (purchased from Charles River Japan, Inc.) were used. At the first day of experiment (Day 0), Adriamycin (Sigma) was administered intravenously at 10 mg/kg (10 ml/kg dissolved in saline at 1 mg/ml). Normal group received intravenously an equivalent amount of saline only. To the mice were administered orally MCC-555 or carrier alone for 14 days from the first day of experiment (Day 0 to Day 13). The administration was initially conducted 1 hour before the adriamycin administration, and administration volume was 10 ml/kg for each time. In drug administration group (n=6), MCC-555 (suspension in 0.1% Tween 80-containing purified water) was administered at a dose of 10 mg/kg to mice that have received adriamycin. In control group (n=6), carrier (0.1% Tween 80-containing purified water) alone was administered to mice that have received adriamycin. Also in normal group (n=3), mice received carrier alone. Mice were separately housed in “a metabolic cage” and allowed to access food and water ad libitum while collecting urine for 24 hours. Specifically, collection of urine was performed 4 times in total, i.e., day 3-4, day 6-7, day 9-10, and day 13-14. Following measurement of volume, the collected urine was subjected to determination of urinary protein, NAG (N-acetyl-β-D-glucosaminidase) and creatinine (CRE) concentrations by clinical chemistry analyzer (SuperZ-818, […] Co.) After the collection of urine on the last experiment day (Day 14), blood was collected via abdominal aorta under ethereal anesthetization and serum was separated. Cholesterol and albumin were determined using Automated clinical analyzer TBA-80FR (TOSHIBA). Also, kidneys were isolated and fixed with neutral buffered formalin.

For the next assay, the system named is human L-FABP mRNA. The assay can be described thus: L-FABP up-regulating activity at mRNA level (RT-PCR) in LLC-PK1 or mouse immortalized renal tubular epithelial cells carrying the human L-FABP chromosomal gene. It is filed as cell-based. Conditions: 1 μM, serum-free DMEM; from 15 minute to 24 hour after beginning of cultivation; normalised to GAPDH mRNA. The text has this: The plasmid isolated in Example 1, (2) above, which contains human L-FABP chromosomal gene (entire length), was linealized and transfected into the porcine renal tubular cell line LLC-PK1 or mouse immortalized renal tubular epithelial cells prepared in a manner similar to that described in Example 2 (3) above to obtain stable transformed cell lines. The human L-FABP chromosomal gene was integrated into these cells on their chromosome without deletion. Using these cells, L-FABP up-regulating activity of test compounds were examined at RNA level and protein level in the following manner. Cells were cultured to become confluent, when the medium was replaced with serum-free DMEM medium, and test compounds were added to the medium at final concentration of 1 μM. The cultivation was continued at 37° C. Control sample was obtained without adding any test compounds. Measurement at mRNA level was carried out in the following manner. After cultivation, cells were collected and total RNA was prepared. […] Also, in order to normalize the measurement values, GAPDH (glyceraldehyde 3-phosphate dehydrogenase) mRNA was detected as control in the similar RT-PCR. The resulted PCR products were subjected to agarose-gel electrophoresis, the gel was stained with ethidium bromide to detect bands respectively and the expression amount was determined by densitometry, or visually.

[5] abbreviates: adriamycin 15 mg/kg, Day 7, 11, 14, FIG. 9.

Consider `CCCc1c(OCCCCCCc2nn[nH]n2)ccc(C(C)=O)c1O` [4-THA, 2-hydroxy-3-propyl-4-[6-(tetrazol-5-yl)hexyloxy]acetophenone], for which the “L-FABP mRNA” value in assay [1] is “increased”.

Regarding `CCOC(=O)C1(CCCCCCOc2ccc(Cl)cc2)CO1` (stereo not shown) [Etomoxir, ethyl 2-[6-(4-chlorophenoxy)hexyl]oxiranecarboxylate], in assay [2], the “Induction of luciferase activity (L-FABP up-regulating activity)” value is on record as “Induction of luciferase activity was observed”. Besides, in the assay with human L-FABP, the “Up-regulating effect on L-FABP protein expression” value is reported as “also observed”.

Turning to `O=C1NC(=O)C(Cc2ccc3cc(OCc4ccccc4F)ccc3c2)S1` (stereo not shown) [MCC-555, 5-[6-(2-fluorobenzyloxy)naphthalene-2-ylmethyl]thiazolidine-2,4-dione], in assay [3] (setting [5]), the “Increase of NAG excretion amount after AD administration” value was “significantly suppressed” and the “Increase of urinary protein after AD administration” value is reported as “significantly suppressed”. For the same compound, the “Animals died during the experiment” value in assay [3] (n=5, in the control group 3 animals died) is given as “no animals died”. The “Induction of luciferase activity (L-FABP up-regulating activity)” value in assay [2] is recorded as “Induction of luciferase activity was observed”. For the same compound, in the assay with human L-FABP, the “Up-regulating effect on L-FABP protein expression” value is recorded as “up-regulating effect on L-FABP protein expression was observed”. Further, the “Histological changes of kidney (tissue imaging examination)” value in assay [4] (10 mg/kg orally for 14 days) is given as “inhibited”. Further, the “NAG excretion (index of proximal renal tubular injury)” value in assay [4] (10 mg/kg orally for 14 days (Day 0 to Day 13), adriamycin 10 mg/kg i.v., FIG. 7) is on record as “suppressed”. In addition, the “Proteinuria (urinary protein)” value in assay [4] (10 mg/kg orally for 14 days, adriamycin 10 mg/kg i.v., FIG. 7) is given as “improved”. In addition, the “Blood biochemical examination parameters (blood cholesterol and albumin level)” value in assay [4] (10 mg/kg orally for 14 days, serum at Day 14, FIG. 8) is given as “improved”. Moreover, the “Induction of L-FABP mRNA” value with human L-FABP mRNA is listed as “induction of L-FABP mRNA was observed”.

The record behind these values is patent US6794154B1, “Remedies for kidney diseases and method for screening the same” (Tanabe Seiyaku Co., Ltd., priority 1999, dated 2004).
